# Test results published in patent publication US10757937B2, “Sulfonamides that activate ABA receptors” (The Regents of the University of California, priority 2014, dated 2020).
# Like-named read-outs stand apart in the source and are kept apart here.
# Assays:
# Test in all cases: receptor-mediated PP2C (HAB1) inhibition in vitro assay
# Type in all cases: biochemical
# PYL11 = molecular target: T1, PYL11 (Arabidopsis thaliana, UniProt Q9FJ50); conditions: for remaining activity at 50 µM: 50 uM of the test compound
# T1 construct: made in house; host or cells: E. coli BL21[DE3]pLysS
# T1 sequence (Q9FJ50 1-161): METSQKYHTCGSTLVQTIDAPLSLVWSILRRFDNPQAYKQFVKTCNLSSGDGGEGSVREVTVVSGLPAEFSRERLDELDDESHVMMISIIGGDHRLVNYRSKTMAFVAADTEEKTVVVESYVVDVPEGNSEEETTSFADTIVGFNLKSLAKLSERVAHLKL
# T1 sequence (Q9CAJ0 23-511 partner): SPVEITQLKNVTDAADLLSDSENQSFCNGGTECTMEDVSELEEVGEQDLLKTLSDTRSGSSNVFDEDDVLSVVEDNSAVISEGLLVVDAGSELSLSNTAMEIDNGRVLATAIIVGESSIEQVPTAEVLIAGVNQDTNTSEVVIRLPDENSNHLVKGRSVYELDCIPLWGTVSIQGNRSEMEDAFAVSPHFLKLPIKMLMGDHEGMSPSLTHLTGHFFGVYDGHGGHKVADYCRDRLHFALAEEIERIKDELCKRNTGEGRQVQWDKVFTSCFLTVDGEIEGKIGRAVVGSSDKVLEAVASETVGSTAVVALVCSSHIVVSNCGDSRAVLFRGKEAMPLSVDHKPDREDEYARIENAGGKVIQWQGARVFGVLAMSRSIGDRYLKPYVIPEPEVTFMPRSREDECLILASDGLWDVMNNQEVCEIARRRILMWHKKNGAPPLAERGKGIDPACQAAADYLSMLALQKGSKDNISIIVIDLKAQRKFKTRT
# Summary of the method: (§1)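 Compounds, tested at 25 μM or 50 uM with ABA at 10 uM, were incubated with recombinant receptor and 50 nM GST-HAB1 (2:1 ratio) in MnCl2-containing Tris-OAc buffer, pH 7.9. Phosphatase activity was followed by 4-methylumbelliferyl-phosphate fluorescence.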
# PYL10 = molecular target: T2, PYL10 (Arabidopsis thaliana, UniProt Q8H1R0); conditions: for remaining activity at 50 µM: 50 uM of the test compound
# T2 construct: 6X-His; made in house; host or cells: E. coli BL21[DE3]pLysS
# T2 sequence (Q8H1R0 1-183): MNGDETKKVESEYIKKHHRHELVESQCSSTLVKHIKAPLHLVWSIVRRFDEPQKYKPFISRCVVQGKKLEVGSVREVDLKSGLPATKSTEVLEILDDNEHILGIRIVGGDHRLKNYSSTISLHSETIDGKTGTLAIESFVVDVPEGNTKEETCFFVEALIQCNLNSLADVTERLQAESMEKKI
# T2 sequence (Q9CAJ0 23-511 partner): T1 sequence (Q9CAJ0 23-511 partner)
# Summary of the method: (§2)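 Fluorogenic readout: 4-methylumbelliferyl-phosphate hydrolysis by 50 nM GST-HAB1 plus 2:1 His-receptor; Tris-OAc pH 7.9, NaCl, 1 mM MnCl2, β-ME. Compounds at 25 μM or 50 uM single dose; IC50 from dose curves for selected compounds.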
# PYL4 = molecular target: T3, PYL4 (Arabidopsis thaliana, UniProt O80920); conditions: for remaining activity at 25 µM: compound at 25 μM, control without agonist = 100%; for remaining activity at 50 µM: 50 uM of the test compound
# T3 construct: 6X-His; made in house; host or cells: E. coli BL21[DE3]pLysS
# T3 sequence (O80920 1-207): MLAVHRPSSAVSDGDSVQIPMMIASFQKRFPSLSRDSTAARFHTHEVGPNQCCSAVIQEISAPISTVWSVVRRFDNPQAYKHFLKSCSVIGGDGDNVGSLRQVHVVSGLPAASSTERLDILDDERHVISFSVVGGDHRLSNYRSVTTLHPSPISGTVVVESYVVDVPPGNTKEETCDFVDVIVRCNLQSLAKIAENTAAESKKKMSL
# T3 sequence (Q9CAJ0 23-511 partner): T1 sequence (Q9CAJ0 23-511 partner)
# Summary of the method: as §1
# PYR1 = molecular target: T4, PYR1 (Arabidopsis thaliana, UniProt O49686); conditions: for remaining activity at 50 µM: 50 uM of the test compound
# T4 construct: 6X-His; made in house; host or cells: E. coli BL21[DE3]pLysS
# T4 sequence (O49686 1-191): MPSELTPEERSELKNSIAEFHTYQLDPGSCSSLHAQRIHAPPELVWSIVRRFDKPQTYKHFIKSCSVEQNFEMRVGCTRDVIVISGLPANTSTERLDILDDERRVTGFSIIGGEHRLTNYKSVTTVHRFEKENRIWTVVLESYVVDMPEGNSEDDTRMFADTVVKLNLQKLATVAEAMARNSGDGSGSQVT
# T4 sequence (Q9CAJ0 23-511 partner): T1 sequence (Q9CAJ0 23-511 partner)
# Summary of the method: as §2
# PYL2 = molecular target: T5, PYL2 (Arabidopsis thaliana, UniProt O80992); conditions: for remaining activity at 50 µM: 50 uM of the test compound
# T5 construct: 6X-His; made in house; host or cells: E. coli BL21[DE3]pLysS
# T5 sequence (O80992 1-190): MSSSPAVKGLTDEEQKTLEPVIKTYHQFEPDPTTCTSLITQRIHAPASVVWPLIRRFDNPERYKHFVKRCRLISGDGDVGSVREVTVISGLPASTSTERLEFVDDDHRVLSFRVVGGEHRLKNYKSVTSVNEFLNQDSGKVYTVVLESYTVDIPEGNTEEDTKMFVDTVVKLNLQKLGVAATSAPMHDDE
# T5 sequence (Q9CAJ0 23-511 partner): T1 sequence (Q9CAJ0 23-511 partner)
# Summary of the method: as §2
# PYL9 = molecular target: T6, PYL9 (Arabidopsis thaliana, UniProt Q84MC7); conditions: for remaining activity at 25 µM: compound at 25 μM, control without agonist = 100%; for remaining activity at 50 µM: 50 uM of the test compound
# T6 construct: 6X-His; made in house; host or cells: E. coli BL21[DE3]pLysS
# T6 sequence (Q84MC7 1-187): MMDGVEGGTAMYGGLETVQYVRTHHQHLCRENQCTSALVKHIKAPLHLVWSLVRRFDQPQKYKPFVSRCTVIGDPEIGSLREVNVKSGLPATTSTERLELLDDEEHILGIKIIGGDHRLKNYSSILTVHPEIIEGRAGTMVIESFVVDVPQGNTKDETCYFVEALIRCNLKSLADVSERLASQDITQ
# T6 sequence (Q9CAJ0 23-511 partner): T1 sequence (Q9CAJ0 23-511 partner)
# Summary of the method: as §2
# [1] = Table VII, read-out: PP2C Dose Curves PYL11 (IC50)
# [2] = Table VII, read-out: PP2C Dose Curves PYL10 (IC50)
# [3] = Table VII, read-out: PP2C Dose Curves PYL4 (IC50)
# [4] = Table VII, read-out: PP2C Dose Curves PYR1 (IC50)
# [5] = Table VII, read-out: PP2C Dose Curves PYL2 (IC50)
# [6] = Table VII, read-out: PP2C Dose Curves PYL9 (IC50)
# [7] = Table XII-B, calculated from dose curves, read-out: PP2C Activity (IC50 in uM) PYL11
# [8] = Table XII-B, calculated from dose curves, read-out: PP2C Activity (IC50 in uM) PYL10
# [9] = Table XII-B, calculated from dose curves, read-out: PP2C Activity (IC50 in uM) PYL4
# [10] = Table XII-B, calculated from dose curves, read-out: PP2C Activity (IC50 in uM) PYR1
# [11] = Table XII-B, calculated from dose curves, read-out: PP2C Activity (IC50 in uM) PYL2
# [12] = Table XII-B, calculated from dose curves, read-out: PP2C Activity (IC50 in uM) PYL9
Compound,remaining activity at 50 µM (PYL11),IC50 (PYL11; [7]),remaining activity at 50 µM (PYL10),IC50 (PYL10; [8]),remaining activity at 50 µM (PYL4),IC50 (PYL4; [9]),remaining activity at 50 µM (PYR1),IC50 (PYR1; [10]),remaining activity at 50 µM (PYL2),IC50 (PYL2; [11]),remaining activity at 50 µM (PYL9),IC50 (PYL9; [12]),also measured
"CC1=CC(=O)CC(C)(C)[C@@]1(O)/C=C/C(C)=C\C(=O)O [ABA, Abscisic acid, reference compound]",–,–,–,–,–,–,–,–,–,–,–,–,PP2C Activity PYL11 (PYL11; ABA (10 μM)): 5.7; PP2C Activity PYL10 (PYL10; ABA (10 μM)): 13.8; PP2C Activity PYL4 (PYL4; ABA (10 μM)): 10.2; PP2C Activity PYR1 (PYR1; ABA (10 μM)): 6.0; PP2C Activity PYL2 (PYL2; ABA (10 μM)): 6.1; PP2C Activity PYL9 (PYL9; ABA (10 μM)): 6.3
CCC(CC)(C(=O)NS(=O)(=O)Cc1ccc([N+](=O)[O-])cc1)c1ccccc1 [Compound 19],–,–,–,–,–,–,–,–,–,–,–,–,IC50 (PYL11; [1]): 2.44 µM; IC50 (PYL10; [2]): 50.8 µM; IC50 (PYL4; [3]): > 50 µM; remaining activity at 25 µM (PYL4): 86%; IC50 (PYR1; [4]): > 50 µM; IC50 (PYL2; [5]): > 50 µM; IC50 (PYL9; [6]): 3.9 µM; remaining activity at 25 µM (PYL9): 15%
N#Cc1ccc(CS(=O)(=O)NC(=O)C2(c3ccc(F)cc3)CCCC2)cc1 [Compound 24],–,–,–,–,–,–,–,–,–,–,–,–,IC50 (PYL11; [1]): 4.09 µM; IC50 (PYL10; [2]): 14.8 µM; IC50 (PYL4; [3]): > 50 µM; remaining activity at 25 µM (PYL4): 92%; IC50 (PYR1; [4]): > 50 µM; IC50 (PYL9; [6]): 0.6 µM; remaining activity at 25 µM (PYL9): 10%; PYL9 agonist potency and selectivity (PYL9; five- and six-membered rings at alpha carbon): potent and relatively selective PYL9 agonists
N#Cc1ccc(CS(=O)(=O)NC(=O)C2(c3cccc(C#N)c3)CC2)cc1 [Compound 50],–,–,–,–,–,–,–,–,–,–,–,–,IC50 (PYL11; [1]): 2.52 µM; IC50 (PYL10; [2]): > 50 µM; IC50 (PYL4; [3]): > 50 µM; remaining activity at 25 µM (PYL4): 67%; IC50 (PYL2; [5]): 54.7 µM; IC50 (PYL9; [6]): 5.76 µM; remaining activity at 25 µM (PYL9): 18%
O=C(NS(=O)(=O)Cc1ccc([N+](=O)[O-])cc1)C1(c2ccccc2)CCCCC1 [Compound 63],92.6%,> 50 µM,88.9%,> 50 µM,103%,> 50 µM,101%,> 50 µM,115%,> 50 µM,75.5%,> 50 µM,–
O=C(NS(=O)(=O)Cc1ccc(F)cc1)C1(c2ccccc2)CCCCC1 [Compound 64],97.5%,> 50 µM,89.8%,> 50 µM,105%,> 50 µM,98.4%,> 50 µM,107%,> 50 µM,91.1%,> 50 µM,–
"CC(C)COC(=O)NS(=O)(=O)Cc1ccc(C#N)cc1 [Compound 65, 2-Methylpropyl N-[(4-cyanophenyl)methanesulfonyl]carbamate]",42.1%,–,39.2%,19.2 µM,95.5%,> 50 µM,96.2%,> 50 µM,95.2%,> 50 µM,18.6%,6.5 µM,–
"CC1CCC(C(=O)NS(=O)(=O)Cc2ccc(C#N)cc2)(c2ccc(F)cc2)CC1 (stereo not drawn) [Compound 67, N-[(4-Cyanophenyl)methanesulfonyl]-1-(4-fluorophenyl)-4-methylcyclohexane-1-carboxamide]",14.7%,3.13 µM,48.2%,–,91.9%,> 50 µM,99.6%,> 50 µM,93%,> 50 µM,8%,2.13 µM,–
"CC1(C)CCC(C(=O)NS(=O)(=O)Cc2ccc(C#N)cc2)(c2ccc(F)cc2)CC1 [Compound 68, N-[(4-Cyanophenyl)methanesulfonyl]-1-(4-fluorophenyl)-4,4-dimethylcyclohexane-1-carboxamide]",16.2%,2.22 µM,83.3%,> 50 µM,94%,> 50 µM,94.4%,> 50 µM,94.8%,> 50 µM,22.6%,17.7 µM,–
"N#Cc1ccc(CS(=O)(=O)NC(=O)C2(c3ccccc3)CCCCC2)cc1 [Compound 69, N-[(4-Cyanophenyl)methanesulfonyl]-1-phenylcyclohexane-1-carboxamide]",13.5%,2.53 µM,27.3%,1.69 µM,95%,> 50 µM,96%,> 50 µM,96.2%,> 50 µM,5.8%,0.135 µM,–
"N#Cc1ccc(CS(=O)(=O)NC(=O)C(c2ccccc2)c2ccccc2)cc1 [Compound 71, N-[(4-Cyanophenyl)methanesulfonyl]-2,2-diphenylacetamide]",43.2%,25 µM,86.5%,> 50 µM,93.2%,> 50 µM,97.9%,> 50 µM,102%,> 50 µM,81.8%,> 50 µM,–
"N#Cc1ccc(CS(=O)(=O)NC(=O)C(c2ccc(F)cc2)c2ccc(F)cc2)cc1 [Compound 72, N-[(4-Cyanophenyl)methanesulfonyl]-2,2-bis(4-fluorophenyl)acetamide]",37.4%,25 µM,98%,> 50 µM,90.1%,> 50 µM,93.9%,> 50 µM,100%,> 50 µM,85.8%,> 50 µM,–
"N#Cc1ccc(CS(=O)(=O)NC(=O)C(C2CCCCC2)C2CCCCC2)cc1 [Compound 73, N-[(4-Cyanophenyl)methanesulfonyl]-2,2-cyclohexylacetamide]",26.9%,22.4 µM,85.7%,> 50 µM,98.2%,> 50 µM,91.6%,> 50 µM,93.8%,> 50 µM,56.3%,> 50 µM,–
